Format in all cases: cell-based
In assay [1] the test system is MDA-MB-468 or BT474 cells. Put plainly: Immunoblot analysis, MDA-MB-468 or BT474 cells (text does not separate the lines). The protocol:
(§1) Cells were grown in Dulbecco's modified Eagle's medium (GE Healthcare Life Sciences Logan, Utah) supplemented with 10% fetal bovine serum (10% FBS-DMEM) in a humidified 37° C. incubator with 5% CO2. Cell lysates were prepared using a buffer containing 1% Triton X100, 20 mM HEPES (pH 7.4), 1 mM EDTA, 1 mM EGTA, 0.1% 3-mercaptoethanol, 5% glycerol, 10 nM microcystin, 200 μM Na3VO4 and 40 mM Na2H2P2O7 as described previously.
(§2) Immunoblot analysis was carried out using primary antibodies purchased from Santa Cruz Biotechnology (Dallas, Tex.) [Actin, sc-1616-R; ERK, sc-93; JNK, sc-572; P-JNK, sc-6254; Src, sc-18; EGFR, sc-03; GRP78, sc-13539; Phosphotyrosine (PY99), sc-7020], Cell Signaling Technology (Beverly, Mass.) [Akt, #4691; P-Akt[T308], #13038; P-Akt[S473], #9271; ATF4, #11815; CHOP, #2895; P-Src[Y527], #2105; EGFR, #4267; HER2, #2165; HER3, #4754; Calnexin, #2679; #13024; P-Erk, #9101; IRE1α, #3294; XBP1s, #12782; PARP, #9532; PDI, #3501; PERK, #5683; S6, #2212; P-S6, #2211; P-Src[Y416], #6943], BD Transduction Laboratories (San Jose, Calif.) [PAI-1, 612024], Millipore (Temecula, Calif.) [anti-phosphotyrosine (4G10), 05-321], and Sigma-Aldrich (St. Louis, Mo.) [anti-FLAG (M2), F3165]. To quantify immunoblot results, bands were analyzed using ImageJ (imagej.nih.gov/ij/) and each band was normalized to the corresponding Actin loading control band.

Assay [2] has as its system T47D cells. Put plainly: Immunoblot analysis of T47D stable cell lines (vector, EGFR or HER2 overexpressing). The settings on record: 20 μM NSC624205, 24 hours. On the procedure: Recombinant retroviruses were prepared and used to produce stable cell lines as described previously. Retroviral vectors encoding EGFR (plasmid 11011, [68]) and HER2 (plasmid 40978 [69]) were from Addgene (Cambridge, Mass.).
Cells were grown in Dulbecco's modified Eagle's medium (GE Healthcare Life Sciences Logan, Utah) supplemented with 10% fetal bovine serum (10% FBS-DMEM) in a humidified 37° C. incubator with 5% CO2. Cell lysates were prepared using a buffer containing 1% Triton X100, 20 mM HEPES (pH 7.4), 1 mM EDTA, 1 mM EGTA, 0.1% 3-mercaptoethanol, 5% glycerol, 10 nM microcystin, 200 μM Na3VO4 and 40 mM Na2H2P2O7 as described previously. […]
(Immunoblotting shows a protein as a band on a membrane.)

Assay [3] has as its system HCC1954 cells. Put plainly: Immunoblot analysis of HCC1954 cells. The settings on record: 24 hour; 20 μM RBF3, 20 μM Lapatinib.
Assay [4] deals with MDA-MB-468 cells. Put plainly: Immunoblot analysis of MDA-MB-468 cell extracts. On the procedure: (§3) The following cell lines were purchased from American Type Culture Collection (ATCC) (Manassas, Va.): MDA-MB-468, BT474, T47D, SKBR3, MDA-MB-231, HCC1954, HEK 293, TSC2-Ang1, and BxPC3. The HCI-012 cell line was derived from the HCI-012 Patient-Derived Xenograft tumor line provided by Dr. Alana Welm using conditional cell reprogramming. Wild type and eIF2α[S51A] homozygous knock-in Mouse Embryo Fibroblasts (MEFs) were described previously.
as §1, §2

For assay [5], the system named is Mouse Embryo Fibroblasts (MEFs). Put plainly: Immunoblot analysis of Mouse Embryo Fibroblasts. The settings on record: 24 hours, thapsigargin 400 nM, tunicamycin 500 ng/ml. On the procedure:
as §3, §1, §2

Assay [6] has as its system BT474 cells. The experiment in a line: Immunoblot analysis of BT474 cell extracts. The settings on record: same drug concentrations. The protocol:
as §3, §1, §2

Assay [7] deals with MDA-MB-468 cells. The experiment in a line: MTT cell viability assay, MDA-MB-468. The settings on record: 72 hours, increasing concentrations. The protocol: (§4) Cell viability was evaluated using MTT (3-(4,5-dimethylthiazol-2-yl)-2,5-diphenyltetrazolium bromide) assays carried out based on the manufacturer's instructions (kit CGD1, Sigma-Aldrich, St. Louis, Mo.)
The test system of assay [8] is BT474 cells. The experiment in a line: MTT cell viability assay, BT474. The settings on record: 72 hours. On the procedure:
as §4
Background: Tetrazolium assays rely on reduction of a dye to a coloured formazan, in cell work by metabolically active cells.

Setting [9] is: increasing concentration, 24 hours (FIG. 5B).

“Also recorded” adds a separate entry of the source.

On to `NCCOB(c1ccccc1)c1ccccc1` [2-APB, 2-aminoethoxydiphenyl borate], for which, in assay [1], the “RBF3-induced downregulation of HER3, Akt dephosphorylation, or PARP cleavage, with 2-APB” value is “did not alter” and the “RBF3-mediated GRP78 upregulation, with 2-APB” value was “reduced”.
`O=S(O)CCCCSSCCCCSSCCCCS(=O)O` [NSC624205]: the “HER3 expression in EGFR or HER2 overexpressing T47D cells” value in assay [2] was “reduced HER3 expression to very low levels; also recorded: more sensitive to downregulation”.
Turning to `CS(=O)(=O)CCNCc1ccc(-c2ccc3ncnc(Nc4ccc(OCc5cccc(F)c5)c(Cl)c4)c3c2)o1` [Lapatinib], in assay [3], the “CHOP expression, Lapatinib with RBF3” value is “cooperated with RBF3 to upregulate” and the “RBF3-induced UPR with respect to GRP78, XBP1s, or ATF4 levels, with Lapatinib” value is given as “only weakly potentiated”. In addition, the “concentration of RBF3 required to downregulate HER3 levels and Akt phosphorylation, on co-treatment” value in assay [4] (2.5 μM Gefitinib or Lapatinib, 24 hours) is “lowered”.
With tunicamycin, in assay [5] (RBF3 20 μM, DTT 5 mM), the “Akt phosphorylation, wild type MEFs” value was “markedly suppressed”; the “ER stress response / UPR, wild type MEFs” value was “induced a robust UPR”; the “PARP cleavage, wild type MEFs” value is on record as “strongly upregulated”. In assay [5], the “CHOP, ATF4, and GRP78 upregulation in eIF2α[S51A] knock-in MEFs” value is recorded as “significantly blunted”; the “PARP cleavage or XBP1s upregulation, effect of S51A eIF2a mutation” value is recorded as “did not affect”. The “ATF4 and CHOP expression” value in assay [4] (thapsigargin 400 nM, tunicamycin 500 ng/ml, DTT 2 mM, compared with 20 μM RBF3) is reported as “more effectively than RBF3”.
As for `O=C(CCSSCCCCS(=O)[O-])OCC(COC(=O)CCSSCCCCS(=O)[O-])(COC(=O)CCSSCCCCS(=O)[O-])COC(=O)CCSSCCCCS(=O)[O-].[Na+].[Na+].[Na+].[Na+]` (stereo not drawn) [PEMP-DDA], in assay [6] (24 hours (FIG. 6B)), the “HER2 expression, quantified, compared with RBF3” value is given as “significantly more than RBF3”. For the same compound, the “PARP cleavage (cPARP), quantified, compared with RBF3” value in assay [6] (24 hours (FIG. 6C)) is “significantly more than RBF3”. Besides, in assay [4] (setting [9]), the “Akt phosphorylation, comparison of bi-, tri- and tetravalent DDAs” value was “more than RBF3 or Bn-DDA”; the “HER3 levels, comparison of bi-, tri- and tetravalent DDAs” value is given as “more than RBF3 or Bn-DDA”. In addition, the “cell viability (MTT)” value in assay [7] was “reduced cell viability in a concentration-dependent manner”. Also, the “cell viability (MTT)” value in assay [8] is “reduced BT474 cell viability more than RBF3”.
